The record followed here is patent publication US6127377A, “Vinca alkaloid antimitotic halogenated derivatives” (Adir et Compagnie, priority 1997, dated 2000).

The structures appear in SMILES notation.

The test deals with tubulin. The experiment in a line: inhibition of the polymerization of tubulin into microtubules, followed by changes in optical density (Weisenberg method). The test is classed as biochemical. As to conditions: read-out: IC50, concentration of compound which brings about a 50% inhibition of the polymerization of tubulin into microtubules. The text has this: This property was confirmed by measuring the inhibition of the polymerization of tubulin into microtubules in the presence of the compounds of the invention, according to the method described by R. C. Weisenberg (Science 177, 1196-7, 1972). The results are expressed in terms of IC50, which corresponds to the concentration of compound which brings about a 50% inhibition of the polymerization. This phenomenon is readily monitored and quantified by means of the changes in optical density.
For `CC[C@]12C=CCN3CC[C@@]4(c5cc([C@@]6(C(=O)OC)C[C@@H]7CC(C(C)Cl)CN(CCc8c6[nH]c6ccccc86)C7)c(OC)cc5N(C)[C@H]4[C@@](O)(C(=O)OC)[C@@H]1OC(C)=O)[C@@H]32` (stereo partly drawn) [Example 1, 20'-chloro-4'-deoxyvinblastine], the IC50 was 1990 nM.
Take `CC[C@]12C=CCN3CC[C@@]4(c5cc([C@@]6(C(=O)OC)C[C@H]7CN(CCc8c6[nH]c6ccccc86)CC(F)(C(C)Cl)C7)c(OC)cc5N(C)[C@H]4[C@@](O)(C(=O)OC)[C@@H]1OC(C)=O)[C@@H]32` (stereo partly drawn) [Example 3, 20'-chloro-4'-deoxy-4'-fluorovinblastine]: the IC50 was determined as 1540 nM.
Next, `CCC1=C[C@@H]2CN(C1)Cc1c([nH]c3ccccc13)[C@@](C(=O)OC)(c1cc3c(cc1OC)N(C)[C@H]1[C@@](O)(C(=O)OC)[C@H](OC(C)=O)[C@]4(CC)C=CCN5CC[C@]31[C@@H]54)C2` [Vinorelbine, reference compound]: 1700 nM.
